Literature values in article PMC8513935.
Each block holds one compound with its values, some of them ahead of it.

Assays:
[1] = experimental, compiled by the authors from the literature (the ESI cites the sources)
[2] = derived by the authors as gas->solvent minus gas->water (a hypothetical dry solvent; the ESI), not a two-phase measurement

- log K of transfer, gas to solvent ([1]; Butanone, 25 C): 4.7 log10 K
- log K of transfer, gas to solvent ([1]; Hexadecane, 25 C): 3.17 log10 K
- log K of transfer, gas to solvent ([1]; Octan-1-ol, 25 C): 4.38 log10 K
- log K of transfer, gas to solvent ([1]; Propanone, 25 C): 4.71 log10 K
- log K of transfer, gas to solvent ([1]; Tetrahydrofuran, 25 C): 4.39 log10 K
- log K of transfer, gas to solvent ([1]; Water, 25 C): 5.73 log10 K
- log K of transfer, water to solvent ([2]; Acetone, 25 C): -1.02 log10 K
- log K of transfer, water to solvent ([2]; Butanone, 25 C): -1.03 log10 K
- log K of transfer, water to solvent ([2]; Hexadecane, 25 C): -2.56 log10 K
- log K of transfer, water to solvent ([2]; Octan-1-ol(dry), 25 C): -1.35 log10 K
- log K of transfer, water to solvent ([2]; Tetrahydrofuran, 25 C): -1.34 log10 K
SMILES: CN(C)C=O

SMILES: c1ccncc1
- log K of transfer, gas to solvent ([1]; 1,2-Dichloroethane, 25 C): 4.16 log10 K
- log K of transfer, gas to solvent ([1]; 2-Methylpropan-1-ol, 25 C): 4.16 log10 K
- log K of transfer, gas to solvent ([1]; 2-Methylpropan-2-ol, 25 C): 3.96 log10 K
- log K of transfer, gas to solvent ([1]; Benzene, 25 C): 3.87 log10 K
- log K of transfer, gas to solvent ([1]; Butan-1-ol, 25 C): 3.95 log10 K
- log K of transfer, gas to solvent ([1]; Butan-2-ol, 25 C): 4.13 log10 K
- log K of transfer, gas to solvent ([1]; Butanone, 25 C): 3.94 log10 K
- log K of transfer, gas to solvent ([1]; CCl4, 25 C): 3.77 log10 K
- log K of transfer, gas to solvent ([1]; Chloroform, 25 C): 4.73 log10 K
- log K of transfer, gas to solvent ([1]; Cyclohexane, 25 C): 3.03 log10 K
- log K of transfer, gas to solvent ([1]; Ethanol, 25 C): 4.18 log10 K
- log K of transfer, gas to solvent ([1]; Hexadecane, 25 C): 3.02 log10 K
- log K of transfer, gas to solvent ([1]; Hexane, 25 C): 3.07 log10 K
- log K of transfer, gas to solvent ([1]; Propan-1-ol, 25 C): 3.99 log10 K
- log K of transfer, gas to solvent ([1]; Propan-2-ol, 25 C): 3.86 log10 K
- log K of transfer, gas to solvent ([1]; Propanone, 25 C): 3.97 log10 K
- log K of transfer, gas to solvent ([1]; Toluene, 25 C): 3.76 log10 K
- log K of transfer, gas to solvent ([1]; Water, 25 C): 3.44 log10 K
- log K of transfer, water to solvent ([2]; 1,2-Dichloroethane, 25 C): 0.72 log10 K
- log K of transfer, water to solvent ([2]; 2-Methylpropan-1-ol, 25 C): 0.72 log10 K
- log K of transfer, water to solvent ([2]; 2-Methylpropan-2-ol, 25 C): 0.52 log10 K
- log K of transfer, water to solvent ([2]; Acetone, 25 C): 0.53 log10 K
- log K of transfer, water to solvent ([2]; Benzene, 25 C): 0.43 log10 K
- log K of transfer, water to solvent ([2]; Butan-1-ol, 25 C): 0.51 log10 K
- log K of transfer, water to solvent ([2]; Butan-2-ol, 25 C): 0.69 log10 K
- log K of transfer, water to solvent ([2]; Butanone, 25 C): 0.5 log10 K
- log K of transfer, water to solvent ([2]; CCl4, 25 C): 0.33 log10 K
- log K of transfer, water to solvent ([2]; Chloroform, 25 C): 1.29 log10 K
- log K of transfer, water to solvent ([2]; Cyclohexane, 25 C): -0.41 log10 K
- log K of transfer, water to solvent ([2]; Ethanol, 25 C): 0.74 log10 K
- log K of transfer, water to solvent ([2]; Hexadecane, 25 C): -0.418 log10 K
- log K of transfer, water to solvent ([2]; Hexane, 25 C): -0.37 log10 K
- log K of transfer, water to solvent ([2]; Propan-1-ol, 25 C): 0.55 log10 K
- log K of transfer, water to solvent ([2]; Propan-2-ol, 25 C): 0.42 log10 K
- log K of transfer, water to solvent ([2]; Toluene, 25 C): 0.32 log10 K

- log K of transfer, gas to solvent ([1]; Hexadecane, 25 C): 5.23 log10 K
- log K of transfer, gas to solvent ([1]; Water, 25 C): 0.17 log10 K
- log K of transfer, water to solvent ([2]; Hexadecane, 25 C): 5.06 log10 K
SMILES: CCCCCc1ccccc1

SMILES: C=CCCCCCCC
- log K of transfer, gas to solvent ([1]; Hexadecane, 25 C): 4.07 log10 K
- log K of transfer, gas to solvent ([1]; Octan-1-ol, 25 C): 3.83 log10 K
- log K of transfer, gas to solvent ([1]; Water, 25 C): -1.51 log10 K
- log K of transfer, water to solvent ([2]; Hexadecane, 25 C): 5.58 log10 K
- log K of transfer, water to solvent ([2]; Octan-1-ol(dry), 25 C): 5.34 log10 K

- log K of transfer, gas to solvent ([1]; Hexadecane, 25 C): 6.62 log10 K
- log K of transfer, gas to solvent ([1]; Hexane, 25 C): 6.79 log10 K
- log K of transfer, gas to solvent ([1]; Water, 25 C): 2.44 log10 K
- log K of transfer, water to solvent ([2]; Hexadecane, 25 C): 4.18 log10 K
- log K of transfer, water to solvent ([2]; Hexane, 25 C): 4.35 log10 K
SMILES: CCCCCCCCCCCCO

- log K of transfer, gas to solvent ([1]; Hexadecane, 25 C): 4.15 log10 K
- log K of transfer, gas to solvent ([1]; Water, 25 C): 2.78 log10 K
- log K of transfer, water to solvent ([2]; Hexadecane, 25 C): 1.37 log10 K
SMILES: CCCCCCCN

- log K of transfer, gas to solvent ([1]; Chloroform, 25 C): 6.9 log10 K
- log K of transfer, gas to solvent ([1]; Hexadecane, 25 C): 5.59 log10 K
- log K of transfer, gas to solvent ([1]; Water, 25 C): 3.92 log10 K
- log K of transfer, water to solvent ([2]; Chloroform, 25 C): 2.98 log10 K
- log K of transfer, water to solvent ([2]; Hexadecane, 25 C): 1.67 log10 K
SMILES: c1ccc2cnccc2c1
